Measured values from ChEMBL document CHEMBL1153832, “Identification and characterization of UK-201844, a novel inhibitor that interferes with human immunodeficiency virus type 1 gp160 processing” (Antimicrob Agents Chemother, 2007).
Active and inactive are the calls of the source. The rule behind the calls is not given here.

Legend:
[1] = tested on: Human immunodeficiency virus 1; assay: Antiviral activity against HIV1 bearing HIV1 NL4-3 envelope infected in human HeLa CD4 cells coexpressing LTR/beta-Gal gene assessed as reduction in virus-induced beta-galactosidase reporter gene activity after 72 hrs by single-cycle infection assay; format: functional, organism-based; conditions: Human immunodeficiency virus 1, HeLa
[2] = tested on: Human immunodeficiency virus 1; assay: Antiviral activity against HIV1 bearing HIV1 NL4-3 envelope infected in human MT2 cells assessed as inhibition of HIV-envelope packed virions at 15 uM after 72 hrs by virus production assay relative to control; format: functional; conditions: Human immunodeficiency virus 1, MT2, 72 h
[3] = tested on: Human immunodeficiency virus 1; assay: Antiviral activity against HIV1 NL4-3 infected in human PM1 cells assessed as inhibition of viral p24 antigen production after 5 days; format: functional, organism-based; conditions: Human immunodeficiency virus 1, NL4-3, PM1, 120 h
[4] = tested on: Human immunodeficiency virus 1; assay: Antiviral activity against HIV1 3B infected in human MT2 cells assessed as inhibition of virus-induced cytopathic effect after 6 days by XTT assay; format: functional, organism-based; conditions: Human immunodeficiency virus 1, 3B, MT2, 144 h
[5] = tested on: Human immunodeficiency virus 1; assay: Antiviral activity against HIV1 Ba-L infected in human PM1 cells assessed as inhibition of viral p24 antigen production after 5 days; format: functional, organism-based; conditions: Human immunodeficiency virus 1, Ba-L, PM1, 120 h
[6] = Therapeutic index, ratio of CC50 for human MT2 cells to EC50 for HIV1 Ba-L; format: cell-based; conditions: read-out: TI
[7] = tested on: Human immunodeficiency virus 1; assay: Antiviral activity against HIV1 NL4-3 infected in human C8166 cells; format: functional, organism-based
[8] = tested on: Human immunodeficiency virus 1; assay: Antiviral activity against HIV1 NL4-3 infected in human CEM-T4 cells; format: functional, organism-based
[9] = tested on: Human immunodeficiency virus 1; assay: Antiviral activity against HIV1 clade-B clinical isolate up to its cytotoxic concentration; format: functional, organism-based
[10] = tested on: Human immunodeficiency virus 1; assay: Antiviral activity against recombinant HIV1 NL4/3BFL chimeric virus infected in human MT2 cells assessed as inhibition of virus-induced CPE; format: functional, organism-based; conditions: Human immunodeficiency virus 1, NL4/3BFL
[11] = tested on: Human immunodeficiency virus 1; assay: Ratio of EC50 for recombinant HIV1 NL4-3/3BFL chimeric virus to EC50 for parental HIV1 NL4-3 virus; format: functional
[12] = tested on: Human immunodeficiency virus 1; assay: Ratio of EC50 for recombinant HIV1 NL4-3/3B5'Env chimeric virus to EC50 for parental HIV1 NL4-3 virus; format: functional
[13] = tested on: Human immunodeficiency virus 1; assay: Antiviral activity against parental HIV1 NL4-3 infected in human MT2 cells by virus production assay; format: functional, organism-based; conditions: Human immunodeficiency virus 1, NL4-3, MT2
[14] = tested on: Human immunodeficiency virus 1; assay: Antiviral activity against recombinant HIV1 NL4-3 bearing envelope with G354E, V372E, D474N substitutions infected in human MT2 cells by virus production assay; format: functional, organism-based
[15] = tested on: Human immunodeficiency virus 1; assay: Antiviral activity against recombinant HIV1 NL4-3 bearing envelope with V372E, D474N substitutions infected in human MT2 cells by virus production assay; format: functional, organism-based
[16] = tested on: Human immunodeficiency virus 1; assay: Antiviral activity against recombinant HIV1 NL4-3 bearing envelope with G354E, V372E substitutions infected in human MT2 cells by virus production assay; format: functional, organism-based
[17] = tested on: Human immunodeficiency virus 1; assay: Ratio of EC50 for recombinant HIV1 NL4-3 bearing envelope with V372E, D474N substitutions to EC50 for parental HIV1 NL4-3; format: functional
[18] = tested on: Human immunodeficiency virus 1; assay: Ratio of EC50 for recombinant HIV1 NL4-3 bearing envelope with D474N substitution to EC50 for parental HIV1 NL4-3; format: functional
[19] = tested on: Human immunodeficiency virus 1; assay: Antiviral activity against HIV1 NL4-3 transfected in HEK293 cells assessed as inhibition of viral envelope gp160 processing at 15 uM by Western blot; format: functional; conditions: Human immunodeficiency virus 1, NL4-3, HEK293
[20] = tested on: Human immunodeficiency virus 1; assay: Antiviral activity against HIV1 NL4-3 transfected in HEK293 cells assessed as inhibition of viral envelope gp160 processing at 1.0 uM by Western blot; format: functional; conditions: Human immunodeficiency virus 1, NL4-3, HEK293
[21] = tested on: Human immunodeficiency virus 1; assay: Antiviral activity against HIV1 NL4-3 transfected in HEK293 cells assessed as inhibition of viral envelope gp160 processing at 0.5 uM by Western blot; format: functional; conditions: Human immunodeficiency virus 1, NL4-3, HEK293
[22] = tested on: Human immunodeficiency virus 1; assay: Antiviral activity against HIV1 NL4-3 infected in human MT2 cells assessed as inhibition of viral p24 antigen level at 7.5 uM by Western blot; format: functional; conditions: Human immunodeficiency virus 1, NL4-3, MT2
[23] = tested on: Human immunodeficiency virus 1; assay: Antiviral activity against HIV1 NL4-3 infected in human MT2 cells assessed as inhibition of viral p24 antigen level at 0.5 uM by Western blot; format: functional; conditions: Human immunodeficiency virus 1, NL4-3, MT2
[24] = tested on: Human immunodeficiency virus 1; assay: Antiviral activity against HIV1 NL4/3BFL chimeric virus infected in human MT2 cells assessed as inhibition of viral p24 antigen level at 2 uM by Western blot; format: functional; conditions: Human immunodeficiency virus 1, NL4/3BFL
[25] = tested on: Human immunodeficiency virus 1; assay: Antiviral activity against HIV1 NL4-3 transfected in HEK293 cells assessed as inhibition of infectious virus production at 15 uM; format: functional; parameters: scale not given: the % may be the effect or the level left
[26] = tested on: Human immunodeficiency virus 1; assay: Inhibition of HIV1 NL4-3 proteins incorporation into virions transfected in HEK293 cells assessed as unprocessed gp160 Env protein at 15 uM by Western blot; format: functional, organism-based
[27] = tested on: Human immunodeficiency virus 1; assay: Inhibition of HIV1 NL4-3 proteins incorporation into virions transfected in HEK293 cells assessed as aberrant Env protein at 15 uM by Western blot; format: functional, organism-based
[28] = molecular target: T1, Proprotein convertase subtilisin/kexin type 6 (Rattus norvegicus) (UniProt Q63415); assay: Inhibition of rat PACE4 up to 100 uM
T1 sequence (whole entry): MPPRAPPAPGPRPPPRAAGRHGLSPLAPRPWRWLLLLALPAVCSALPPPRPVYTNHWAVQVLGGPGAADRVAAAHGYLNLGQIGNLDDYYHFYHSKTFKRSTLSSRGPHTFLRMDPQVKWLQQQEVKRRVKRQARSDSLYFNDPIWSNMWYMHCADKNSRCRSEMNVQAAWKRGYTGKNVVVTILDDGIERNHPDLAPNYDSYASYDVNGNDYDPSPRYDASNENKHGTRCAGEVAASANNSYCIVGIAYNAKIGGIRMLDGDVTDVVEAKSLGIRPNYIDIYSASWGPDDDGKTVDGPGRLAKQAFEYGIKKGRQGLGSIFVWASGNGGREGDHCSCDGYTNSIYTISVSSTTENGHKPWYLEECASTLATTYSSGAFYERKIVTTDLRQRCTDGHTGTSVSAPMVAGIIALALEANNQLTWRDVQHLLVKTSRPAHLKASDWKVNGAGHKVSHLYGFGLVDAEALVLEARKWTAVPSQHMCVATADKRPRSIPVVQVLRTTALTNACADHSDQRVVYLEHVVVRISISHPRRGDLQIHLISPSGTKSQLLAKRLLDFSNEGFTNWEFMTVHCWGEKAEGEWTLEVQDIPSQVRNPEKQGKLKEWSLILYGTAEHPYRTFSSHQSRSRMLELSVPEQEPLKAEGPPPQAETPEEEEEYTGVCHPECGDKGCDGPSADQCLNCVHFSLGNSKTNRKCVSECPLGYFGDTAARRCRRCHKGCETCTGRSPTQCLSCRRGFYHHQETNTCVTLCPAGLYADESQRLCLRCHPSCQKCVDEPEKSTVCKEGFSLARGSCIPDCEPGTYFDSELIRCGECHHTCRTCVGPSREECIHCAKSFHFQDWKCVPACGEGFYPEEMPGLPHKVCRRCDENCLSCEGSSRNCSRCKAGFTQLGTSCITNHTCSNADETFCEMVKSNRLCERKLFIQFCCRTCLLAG

## NC(=O)C(c1ccccc1)(c1ccccc1)[C@H]1CCCN(CCc2ccc3c(c2)CCO3)C1
[1]
  EC50: > 32 µM
[2]
  inhibition in vivo at 15 µM: 99.5%
[3]
  EC50: 2.7 µM
[4]
  EC50: 32 µM
[5]
  EC50: 24 µM
[6]
  selectivity ratio: 2
[7]
  EC50: Active
[8]
  EC50: Active
[9]
  Activity: inactive
[10]
  EC50: > 32 µM
[11]
  fold change (FC): >25
[12]
  fold change (FC): >25
[13]
  EC50: 1.03 µM
[14]
  EC50: > 32 µM
[15]
  EC50: > 32 µM
[16]
  EC50: 2.2 µM
[17]
  fold change (FC): >31
[18]
  fold change (FC): 6
[19]
  inhibition at 15 µM: 100%
[20]
  inhibition at 1 µM: 44%
[21]
  inhibition at 0.5 µM: 12%
[22]
  inhibition at 7.5 µM: 99%
[23]
  inhibition at 0.5 µM: 12%
[24]
  inhibition at 2 µM: 2%
[25]
  Activity: 100%
[26]
  Activity: Active
[27]
  Activity: Active
[28]
  Activity: inactive
